The values that follow come from patent US9597318B2, “2-oxothiazole compounds and method of using same for chronic inflammatory disorders” (Avexxin AS, priority 2009, dated 2017).

Like-named read-outs stand apart in the source and are kept apart here.

One experiment deals with group IVa PLA2 (cPLA2) (Homo sapiens (Human), UniProt P47712). As to the kind of experiment: In vitro cPLA2 enzyme activity assay. In kind it is biochemical. On the procedure: Some of the compounds above were tested using an in vitro cPLA2 enzyme activity assay.
Sequence of group IVa PLA2 (cPLA2) (P47712 whole entry): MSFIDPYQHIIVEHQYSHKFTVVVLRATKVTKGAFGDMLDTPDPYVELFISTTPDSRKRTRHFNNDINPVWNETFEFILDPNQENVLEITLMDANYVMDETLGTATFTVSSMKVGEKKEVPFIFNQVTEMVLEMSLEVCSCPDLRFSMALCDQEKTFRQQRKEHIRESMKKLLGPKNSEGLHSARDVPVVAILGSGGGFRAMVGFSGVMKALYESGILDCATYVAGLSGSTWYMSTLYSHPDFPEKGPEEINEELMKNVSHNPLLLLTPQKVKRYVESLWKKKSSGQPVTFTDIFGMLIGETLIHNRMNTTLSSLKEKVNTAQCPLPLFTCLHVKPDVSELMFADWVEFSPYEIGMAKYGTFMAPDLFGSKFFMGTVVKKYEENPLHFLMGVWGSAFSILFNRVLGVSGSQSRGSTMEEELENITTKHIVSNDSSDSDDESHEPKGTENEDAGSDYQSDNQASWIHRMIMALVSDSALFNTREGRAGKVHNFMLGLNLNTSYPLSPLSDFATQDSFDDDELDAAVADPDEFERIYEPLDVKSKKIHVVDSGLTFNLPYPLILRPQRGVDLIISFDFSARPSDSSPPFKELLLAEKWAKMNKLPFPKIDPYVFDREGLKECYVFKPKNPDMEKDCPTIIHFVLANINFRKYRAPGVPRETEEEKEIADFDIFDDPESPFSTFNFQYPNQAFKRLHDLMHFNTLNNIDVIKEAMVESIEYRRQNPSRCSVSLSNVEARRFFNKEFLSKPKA
Assay for cPLA2 activity was performed by the use of sonicated vesicles of 1-palmitoyl-2-arachidonoyl-sn-glycerol-3-phosphorylcholine (100 μM) containing 100,000 cpm of 1-palmitoyl-2-[1 14C]arachidonoylsn-glycerol-3-phosphorylcholine in 100 mM Hepes, pH 7.5, 80 μM Ca2, 2 mM dithiothreitol, and 0.1 mg/ml BSA as described. Following a […] incubation at 37° C., the reaction was terminated (derived from Wijkander et al). The lower phase was separated by thin layer chromatography, and the spot corresponding to free [1-14C]arachidonic acid was visualized by digital imaging and quantified with a PhosphorImager (Fuji Instruments). The source of cPLA2 enzyme was recombinant overexpression of the human gene for group IVa PLA2 in baculovirus insect cell expression system, as described in Abdullah et al. • Wijkander, J., and Sundler, R. (1991) Eur. J. Biochem. 202, 873-880 • Abdullah, K., et al. (1995) Human cytosolic phospholipase A2 expressed in insect cells is extensively phosphorylated on Ser-505. Biochim Biophys Acta. 1995 May 11; 1244(1):157-64.

A further experiment concerns SW982 cells. Description: AA release assay in SW982 cells, IL-1B stimulation. It is filed as cell-based. The following applies: Homo sapiens. On the procedure:
(§1) The Cell Culture SW982 model cell line at a confluent or spheroid state (Wada Y, 2005) was used since gene expression and generation of proinflammatory cytokines resemble RA-derived synovial fibroblast-like cells.
[…] […] IC50 is evaluated from dose-response inhibitions curves.

The test system of another experiment is PGE2. Description: PGE2-assay (EIA kit detection). It is filed as cell-based. How it is done:
as §1
Samples and controls were slowly thawed and diluted (between 1:1 and 1:2500) in the standard diluent. The maximal dilution was 1:10 for one step. That is why several intermediate dilutions were prepared. In the beginning all values were determined from duplicates. After having minimized technical errors, samples were only analyzed as individuals. All further steps, except for some minor corrections, were performed according to the manufacturer's recommendations as can be found in the manual of the EIA kit. In order to optimize the results, the incubation time of the alkaline phosphatase substrate was prolonged by 15 minutes. During the incubation, the plates were kept in the dark. An example of the arrangements of the samples and controls is illustrated in the appendix. The read-out was carried out with a Multiscan plate reader (Ascent Labsystems) at wavelengths of 414 and 595 nm after 10 seconds shaking at 120 rpm. The corresponding software to obtain the data was the Ascent software for Multiscan, Version 2.4.1.
Data were processed using Microsoft Office Excel 2003 and SigmaPlot 10.0.

The mark [1] stands for this setting: recombinant human group IVa PLA2, vesicle assay, 37° C., read-out: Enzyme Assay IC 50.
Setting [2] is: 1 h preincubation, IL-1B stimulation, time not given.
Where [3] appears, read: read-out: cPLA2 in vitro assay IC50.

Consider `O=C(CCCCc1ccccc1)c1nccs1` [GK147, 5-Phenyl-1-(thiazol-2-yl)pentan-1-one], for which the IC50 on group IVa PLA2 (cPLA2) (setting [1]) is 3.05 µM.

`CCCCCCOc1ccc(CCC(=O)c2nccs2)cc1` [GK150, 3-(4-(Hexyloxy)phenyl)-1-(thiazol-2-yl)propan-1-one]: the IC50 in the experiment on SW982 cells (setting [2]) was 5.8 µM.

Compound `CCOC(=O)c1csc(C(=O)CCCCc2ccccc2)n1` [GK152, Ethyl 2-(5-phenylpentanoyl)thiazole-4-carboxylate] gave an inhibition at 0.1 µM with PGE2 (0.1 uM) of 41%. Moreover, in the experiment on PGE2, the inhibition at 3 µM was found to be 38%, the inhibition at 10 µM was 30% and the inhibition at 30 µM worked out at 31%. In addition, the IC50 in the experiment on SW982 cells ((2 h)) worked out at 7.4 µM. In the experiment on SW982 cells ((4 h)), this compound registered an IC50 of over 25 µM. For the same compound, the IC50 at group IVa PLA2 (cPLA2) (setting [3]) was over 5 µM.

As for `CCCCCCCCc1ccc(OCCCC(=O)c2nccs2)cc1` [GK154, 4-(4-Octylphenoxy)-1-(thiazol-2-yl)butan-1-one], the IC50 at group IVa PLA2 (cPLA2) (setting [1]) is 3.65 µM.

For `CCCCCCOc1ccc(CCCC(F)C(=O)c2nccs2)cc1` (stereo not drawn) [GK156, 2-Fluoro-5-(4-(hexyloxy)phenyl)-1-(thiazol-2-yl)pentan-1-one], the IC50 on group IVa PLA2 (cPLA2) (setting [1]) was 3.7 µM.

`O=C(CCCCc1ccccc1)c1nc2ccccc2s1` [GK159] had an inhibition at 0.3 µM with PGE2 (0.3 uM) of 76%. This compound returned an inhibition at 3 µM in the experiment on PGE2 of 18%. Also, at 10 µM the inhibition in the experiment on PGE2 was 23%. The compound further returned an inhibition at 30 µM with PGE2 of 10%. The IC50 was under 2 µM in the experiment on SW982 cells ((2 h)), about 25 µM in the experiment on SW982 cells ((4 h)) and over 5 µM at group IVa PLA2 (cPLA2) (setting [3]).

In the experiment on PGE2, `CCC(=O)c1nc(C(=O)O)cs1` [GK160] yielded an inhibition at 10 µM of 12% and an inhibition at 30 µM of 30%. The compound further yielded an IC50 in the experiment with SW982 cells (setting [2]) of 4.9 µM. In addition, at group IVa PLA2 (cPLA2) (setting [3]), the IC50 was found to be 7.2 µM.

In the experiment with PGE2, `O=C(CCCCc1ccc2ccccc2c1)c1nc2ccccc2s1` [GK181] had an inhibition at 10 µM of 16.3% and an inhibition at 30 µM of 22.5%. In the experiment on SW982 cells (setting [2]), this compound displayed an IC50 of 1.4 µM.

In the case of `CCc1ccc(OCC(=O)c2nccs2)cc1` [GK185], the IC50 in the experiment with SW982 cells (setting [2]) is 2.8 µM; at group IVa PLA2 (cPLA2) (setting [3]), 2 µM.
